From ChEMBL document CHEMBL1140350, “The endocannabinoid system: drug targets, lead compounds, and potential therapeutic applications” (J Med Chem, 2005)

Columns and labels:
[1] = target: T1, Fatty-acid amide hydrolase 1 (Homo sapiens, UniProt O00519); assay: Irreversible inhibition of fatty acid amide hydrolase
T1 sequence (O00519 whole entry): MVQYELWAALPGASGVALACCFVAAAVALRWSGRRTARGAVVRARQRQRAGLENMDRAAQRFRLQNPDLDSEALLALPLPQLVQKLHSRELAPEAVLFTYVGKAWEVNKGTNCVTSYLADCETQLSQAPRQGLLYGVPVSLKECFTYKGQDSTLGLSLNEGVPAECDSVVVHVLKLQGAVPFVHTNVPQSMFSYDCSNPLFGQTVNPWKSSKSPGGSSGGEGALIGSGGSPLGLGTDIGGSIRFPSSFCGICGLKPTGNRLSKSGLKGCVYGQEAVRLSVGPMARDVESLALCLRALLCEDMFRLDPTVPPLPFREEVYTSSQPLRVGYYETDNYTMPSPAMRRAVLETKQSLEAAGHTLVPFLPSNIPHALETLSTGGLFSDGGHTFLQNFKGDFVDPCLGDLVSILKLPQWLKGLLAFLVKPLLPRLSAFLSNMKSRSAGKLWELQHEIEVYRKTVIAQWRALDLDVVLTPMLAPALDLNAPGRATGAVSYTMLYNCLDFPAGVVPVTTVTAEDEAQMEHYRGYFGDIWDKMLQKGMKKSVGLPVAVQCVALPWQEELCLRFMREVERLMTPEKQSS

Homo sapiens = species: Homo sapiens; assay: Concentration required to inhibit anandamide uptake into human monocytes; assay type: functional
Cannabinoid receptor 1 [2] = target: T2, Cannabinoid receptor 1 (Rattus norvegicus, UniProt P20272); assay: (§1) Binding affinity for cannabinoid receptor 1
[3] = Binding affinity for cannabinoid receptor 2
[4] = target: T1, Fatty-acid amide hydrolase 1; assay: Inhibitory concentration against fatty acid amide hydrolase
[5] = target: T1, Fatty-acid amide hydrolase 1; assay: Binding affinity for fatty acid amide hydrolase
[6] = target: T3, N-acylethanolamine-hydrolyzing acid amidase (Homo sapiens, UniProt Q02083); assay: Inhibitory concentration against N-palmitoylethanolamine acid amidase
T3 sequence (Q02083 whole entry): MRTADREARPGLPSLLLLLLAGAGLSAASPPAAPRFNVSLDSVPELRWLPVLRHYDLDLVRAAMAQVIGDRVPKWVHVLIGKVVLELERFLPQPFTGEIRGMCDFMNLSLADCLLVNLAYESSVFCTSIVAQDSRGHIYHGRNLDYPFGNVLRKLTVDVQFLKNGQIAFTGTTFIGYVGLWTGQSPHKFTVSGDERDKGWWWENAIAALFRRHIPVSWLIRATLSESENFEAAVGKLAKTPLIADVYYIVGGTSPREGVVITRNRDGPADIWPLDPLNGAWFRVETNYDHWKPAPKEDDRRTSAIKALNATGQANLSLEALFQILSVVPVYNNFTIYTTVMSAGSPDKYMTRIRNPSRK

[7] = target: T1, Fatty-acid amide hydrolase 1; assay: Apparent binding affinity for fatty acid amide hydrolase
[8] = target: T1, Fatty-acid amide hydrolase 1; assay: Inhibition of fatty acid amide hydrolase; range =. 23-3 uM
Monoglyceride lipase = target: T4, Monoglyceride lipase (Homo sapiens, UniProt Q99685); assay: Inhibitory concentration against monoacylglycerol lipase
T4 sequence (Q99685 whole entry): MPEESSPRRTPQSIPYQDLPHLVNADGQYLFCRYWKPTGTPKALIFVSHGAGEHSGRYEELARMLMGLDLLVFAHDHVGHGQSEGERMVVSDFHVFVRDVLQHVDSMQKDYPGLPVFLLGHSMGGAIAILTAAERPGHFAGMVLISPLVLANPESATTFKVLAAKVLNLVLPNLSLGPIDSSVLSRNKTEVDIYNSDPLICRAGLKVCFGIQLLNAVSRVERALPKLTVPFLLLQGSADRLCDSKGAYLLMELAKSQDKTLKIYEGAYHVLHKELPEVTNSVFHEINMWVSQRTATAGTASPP

[9] = target: T5, N-acylethanolamine-hydrolyzing acid amidase (Homo sapiens) (UniProt Q02083); assay: Percent inhibition aganist N-palmitoylethanolamine acid amidase at 10 uM
T5 sequence (whole entry): T3 sequence (Q02083 whole entry)

[10] = target: T1, Fatty-acid amide hydrolase 1; assay: Irreversible inhibition of fatty acid amide hydrolase; range=. 5-6 nM
[11] = target: T1, Fatty-acid amide hydrolase 1; assay: Inhibition of fatty acid amide hydrolase; range = 4.1-7 uM
Cannabinoid receptor = Cannabinoid receptor (Homo sapiens, UniProt P34972+P21554); assay: Binding affinity for Cannabinoid receptor; assay type: protein assay
Mus musculus = species: Mus musculus; assay: Concentration required to inhibit anandamide uptake from the extracellular medium into cells; assay type: functional, cell-based
Cannabinoid receptor 1 [12] = target: Cannabinoid receptor 1 (Homo sapiens, UniProt P21554); assay: as §1
[13] = target: T6, Fatty-acid amide hydrolase 1 (Mus musculus) (UniProt O08914); assay: Inhibitory potency against fatty acid amide hydrolase activity in mouse brain microsomes in presence of 58 uM anandamide at 160 uM; assay type: functional; conditions: Microsome
T6 sequence (whole entry): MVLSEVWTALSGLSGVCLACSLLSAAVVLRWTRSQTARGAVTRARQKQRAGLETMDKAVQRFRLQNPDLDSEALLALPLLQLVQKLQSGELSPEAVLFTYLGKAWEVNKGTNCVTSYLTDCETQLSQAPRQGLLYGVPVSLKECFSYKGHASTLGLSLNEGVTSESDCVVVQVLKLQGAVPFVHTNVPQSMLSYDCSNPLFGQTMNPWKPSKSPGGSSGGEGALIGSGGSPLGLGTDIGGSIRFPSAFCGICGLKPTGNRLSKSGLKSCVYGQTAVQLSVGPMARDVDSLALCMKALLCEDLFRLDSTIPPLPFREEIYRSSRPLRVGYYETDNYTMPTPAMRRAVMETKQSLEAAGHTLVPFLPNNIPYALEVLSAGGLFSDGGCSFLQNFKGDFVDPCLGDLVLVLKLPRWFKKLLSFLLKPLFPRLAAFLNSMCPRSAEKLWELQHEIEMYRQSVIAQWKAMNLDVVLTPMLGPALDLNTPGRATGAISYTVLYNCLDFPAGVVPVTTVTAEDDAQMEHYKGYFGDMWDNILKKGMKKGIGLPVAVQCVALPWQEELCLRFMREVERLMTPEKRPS

[14] = target: T1, Fatty-acid amide hydrolase 1; assay: Binding affinity for human fatty acid amide hydrolase
Cannabinoid receptor 1 [15] = target: T2, Cannabinoid receptor 1; assay: Inhibition of [3H]CP-55940 binding to rat cannabinoid receptor 1

T2 sequence (P20272 whole entry): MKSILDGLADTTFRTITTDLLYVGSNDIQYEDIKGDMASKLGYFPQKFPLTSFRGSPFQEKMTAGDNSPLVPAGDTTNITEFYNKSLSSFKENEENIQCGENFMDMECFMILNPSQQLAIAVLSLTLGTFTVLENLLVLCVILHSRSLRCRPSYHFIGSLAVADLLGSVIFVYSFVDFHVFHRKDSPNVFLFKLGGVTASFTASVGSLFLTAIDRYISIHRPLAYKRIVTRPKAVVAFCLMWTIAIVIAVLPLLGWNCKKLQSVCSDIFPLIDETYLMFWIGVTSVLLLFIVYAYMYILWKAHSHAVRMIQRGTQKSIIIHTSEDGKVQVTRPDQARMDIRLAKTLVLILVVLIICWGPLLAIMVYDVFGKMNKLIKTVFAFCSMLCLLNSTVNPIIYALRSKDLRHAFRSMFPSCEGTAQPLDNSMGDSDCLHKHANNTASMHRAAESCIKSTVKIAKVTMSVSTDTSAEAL
Cannabinoid receptor 1 (Homo sapiens, UniProt P21554), sequence (P21554 whole entry): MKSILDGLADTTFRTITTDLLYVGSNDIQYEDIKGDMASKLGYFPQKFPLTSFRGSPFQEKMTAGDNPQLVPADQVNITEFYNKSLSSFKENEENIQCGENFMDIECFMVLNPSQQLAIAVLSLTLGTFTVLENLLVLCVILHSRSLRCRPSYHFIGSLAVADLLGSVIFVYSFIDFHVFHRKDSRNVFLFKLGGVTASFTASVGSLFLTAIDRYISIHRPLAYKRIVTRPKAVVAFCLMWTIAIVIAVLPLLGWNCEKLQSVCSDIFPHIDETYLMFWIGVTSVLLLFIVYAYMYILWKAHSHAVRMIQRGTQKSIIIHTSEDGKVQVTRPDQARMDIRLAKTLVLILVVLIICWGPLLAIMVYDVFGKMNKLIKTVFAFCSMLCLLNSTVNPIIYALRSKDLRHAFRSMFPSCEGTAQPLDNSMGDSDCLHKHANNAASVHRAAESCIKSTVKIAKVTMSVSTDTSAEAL

CCCCC/C=C\C/C=C\C/C=C\C/C=C\CCCCS(=O)(=O)F
IC50 [1]: 0.1 nM

C=CCOc1ccc(CN(C/C=C/c2ccccc2)CCCC)cc1
IC50 (Homo sapiens): 90 nM

CCCCC/C=C\C/C=C\C/C=C\C/C=C\CCCC(=O)OCCN
Ki (Cannabinoid receptor 1 [2]): 1900 nM
Ki [3]: 1400 nM

O=C1O/C(=C/Br)CCC1c1cccc2ccccc12 (stereo not drawn) [BROMOENOL LACTONE]
IC50 [1]: 800 nM

CCCCCCCCCCCCCCCC(=O)NCC(=O)OC
IC50 [4]: 10000 nM

CCCCCCCC/C=C\CCCCCCC(C)C(=O)c1nc2ncccc2o1 (stereo not drawn)
Ki [5]: 9.1 nM

CCCCCCCCCCCCCCCC(=O)OC1CCCCC1 [CYCLOHEXYL PALMITATE]
IC50 [6]: 19000 nM

CCCCCCCc1ccc(CCCCCCC(=O)C(F)(F)F)cc1
Ki [7]: 96 nM

CCCCCCCCCCCCCCCNC(=O)COC(C)=O [ACETIC ACID PENTADECYLCARBAMOYLMETHYL ESTER]
IC50 [4]: 8000 nM

CCCCCCCCCCCCCCCNC(=O)CCO
IC50 [6]: 54000 nM

CCCCC/C=C\C/C=C\C/C=C\C/C=C\CCCC(=O)C(F)(F)F [ARACHIDONYL TRIFLUOROMETHYLKETONE]
IC50 [8]: 3000 nM

Cc1c(C(=O)c2cccc3ccccc23)c2cccc3c2n1[C@H](CN1CCOCC1)CO3 [WIN-552122]
Ki [3]: 1.8 nM

CCCCC/C=C\C/C=C\C/C=C\C/C=C\CCCC(=O)c1nc2ncccc2o1
Ki [5]: 1 nM

CC(C)(/C=C\C/C=C\C/C=C\C/C=C\CCCC(=O)OCC(O)CO)CCCCC#N (stereo not drawn)
IC50 [4]: ~11000 nM
IC50 (Monoglyceride lipase): ~11000 nM

CCCCC/C=C\C/C=C\C/C=C\C/C=C\CCCC(=O)NCCc1ccc(O)c(O)c1 [ARACHIDONOYL DOPAMINE]
Ki (Cannabinoid receptor 1 [2]): 250 nM
Ki [3]: 12 nM

CCCCCCCCCCCCCCCNC(=O)c1ccccc1
inhibition [9]: 61%

CCCCCCCCCCCCCCCC(=O)NC(C)C [HEXADECANOIC ACID ISOPROPYLAMIDE]
IC50 [4]: 13 nM

CC(C)c1cccc(C(C)C)c1O [PROPOFOL]
IC50 [4]: 52000 nM

CCCCC/C=C\C/C=C\C/C=C\C/C=C\CCCC(=O)[CH-][N+]#N
IC50 [10]: 6 nM

CCCCC/C=C\C/C=C\CC/C=C\CCCC(=O)NCCc1ccc(O)c(O)c1
IC50 [4]: 19000 nM

CCCCCCCCCCCCCCCCOC(=O)CC [HEXADECYLPROPIONATE]
IC50 [6]: 32000 nM

CCCCC/C=C\C/C=C\C/C=C\C/C=C\CCC(C)C(=O)OCC(O)CO (stereo not drawn)
IC50 [4]: ~11000 nM
IC50 (Monoglyceride lipase): ~11000 nM

CCCCC/C=C\C/C=C\C/C=C\C/C=C\CCCC(=O)NCC(=O)O [ARACHIDONOYL GLYCINE]
IC50 [11]: 7000 nM

CCCCCC[C@@H](C)OC(=O)CC(=O)CBr
Ki (Cannabinoid receptor): 800 nM

CCCCCCCCCCCCCCCCCCS(=O)(=O)F [OCTADECANESULFONYL FLUORIDE]
IC50 [1]: 4 nM

CCCCCCCCCCCCCCCNC(=O)C1CCCCC1 [CYCLOHEXANECARBOXYLIC ACID PENTADECYLAMIDE]
IC50 [6]: 4500 nM
inhibition [9]: 66%

O=C(CCCCCCCc1ccccc1)C(F)(F)F
Ki [5]: 25 nM

CCCCC/C=C\C/C=C\C/C=C\C/C=C\CCCC(=O)Nc1ccc(O)cc1
IC50 (Mus musculus): ~10000 nM

CCCCCCCCCCC[C@@H](C[C@@H]1OC(=O)[C@H]1CCCCCC)OC(=O)[C@H](CC(C)C)NC=O [ORLISTAT]
IC50 (Cannabinoid receptor 1 [12]): ≤ 100 nM

CCCCC/C=C\C/C=C\C/C=C\C/C=C\CCCC(=O)NCCc1c[nH]c2ccc(O)cc12
IC50 [4]: 12000 nM

CCCCCCCC/C=C\CCCCCCCC(=O)c1nc2ncccc2o1
Ki [5]: 2.3 nM

CCCCCCC(C)(C)c1ccc([C@@H]2C[C@H](O)CC[C@H]2CCCO)c(O)c1 [CP-55940]
Ki [3]: 2.6 nM

CCCCC/C=C\C/C=C\C/C=C\C/C=C\CCCC(=O)OCCO
IC50 [4]: > 25000 nM
IC50 (Monoglyceride lipase): 25000 nM

CC(C)(/C=C\C/C=C\C/C=C\C/C=C\CCCC(=O)OCC(O)CO)CCCCO (stereo not drawn)
IC50 [4]: ~11000 nM
IC50 (Monoglyceride lipase): ~11000 nM

CCCCCc1cc(O)c2c(c1)OC(C)(C)[C@@H]1CCC(C)=C[C@@H]21 [DRONABINOL]
Ki [3]: 20 nM
inhibition [13]: 31%

CCCCCc1cc(O)c2c(c1)OC(C)(C)c1ccc(C)cc1-2
inhibition [13]: 46%

O=C(CCCCCc1ccccc1)c1nc2ncccc2o1
Ki [14]: 0.094 nM

O=S(=O)(F)Cc1ccccc1 [PHENYLMETHYLSULFONYLFLUORIDE]
IC50 [1]: 13000 nM

CCCCCCCC/C=C\CCCCCCCC(N)=O [OLEAMIDE]
Ki (Cannabinoid receptor 1 [15]): 1140 nM

O=C(CCCCCCc1ccccc1)c1nc2ncccc2o1
IC50 [4]: 2.1 nM

C=C(C)[C@@H]1CCC(C)=C[C@H]1c1c(O)cc(CCCCC)cc1O
inhibition [13]: 66%

CCCCCCCCCCCCS(=O)(=O)F [DODECANESULFONYL FLUORIDE]
IC50 [1]: 3 nM

CCCCC/C=C\C/C=C\C/C=C\C/C=C\CCCC(=O)NCCO [ANANDAMIDE]
Ki [3]: 370 nM

CCCCCCCC/C=C\CCCCCCCC(=O)C(F)(F)F
Ki [5]: 1.2 nM

CCCCC/C=C\C/C=C\C/C=C\C/C=C\CCCCOC(CO)CO
Ki (Cannabinoid receptor 1 [2]): 21 nM
